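Compound exposure: 48 hours, 5 concentrations, 96-well plates. TGI: concentration producing complete growth inhibition.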
What was measured:
Test in all cases: NCI anticancer screen, dose series, 48 h
PC-3 prostate = test system: PC-3 prostate
A549 NSCLC = test system: A549 NSCLC
UACC-62 melanoma = test system: UACC-62 melanoma
MDA-N = test system: MDA-N
MDA-MB-435 = test system: MDA-MB-435
IGROV1 ovarian = test system: IGROV1 ovarian
NCI-H522 lung = test system: NCI-H522 lung
SK-MEL-2 melanoma = test system: SK-MEL-2 melanoma
SN12C renal = test system: SN12C renal
BT-549 breast = test system: BT-549 breast
HOP-92 NSCLC = test system: HOP-92 NSCLC
RXF 393 renal = test system: RXF 393 renal
MOLT-4 leukemia = test system: MOLT-4 leukemia
SW-620 colon = test system: SW-620 colon
DU-145 prostate = test system: DU-145 prostate
OVCAR-5 ovarian = test system: OVCAR-5 ovarian
M14 melanoma = test system: M14 melanoma
K-562 leukemia = test system: K-562 leukemia
T-47D breast = test system: T-47D breast
UO-31 renal = test system: UO-31 renal
LOX IMVI melanoma = test system: LOX IMVI melanoma
NCI-H460 lung = test system: NCI-H460 lung
U251 CNS = test system: U251 CNS
HS 578T breast = test system: HS 578T breast
HT29 colon = test system: HT29 colon
SNB-75 CNS = test system: SNB-75 CNS
HCC-2998 colon = test system: HCC-2998 colon
SK-MEL-28 melanoma = test system: SK-MEL-28 melanoma
A498 renal = test system: A498 renal
OVCAR-4 ovarian = test system: OVCAR-4 ovarian
COLO 205 colon = test system: COLO 205 colon
EKVX NSCLC = test system: EKVX NSCLC
SNB-19 CNS = test system: SNB-19 CNS
786-0 renal = test system: 786-0 renal
RPMI-8226 leukemia = test system: RPMI-8226 leukemia
ACHN renal = test system: ACHN renal
OVCAR-8 ovarian = test system: OVCAR-8 ovarian
TK-10 renal = test system: TK-10 renal
CAKI-1 renal = test system: CAKI-1 renal
SK-MEL-5 melanoma = test system: SK-MEL-5 melanoma
SR leukemia = test system: SR leukemia
MDA-MB-231 breast = test system: MDA-MB-231 breast
SF-295 CNS = test system: SF-295 CNS
NCI/ADR-RES ovarian = test system: NCI/ADR-RES ovarian
HCT-15 colon = test system: HCT-15 colon
HCT-116 colon = test system: HCT-116 colon
SF-539 CNS = test system: SF-539 CNS
NCI-H226 lung = test system: NCI-H226 lung
SF-268 CNS = test system: SF-268 CNS
OVCAR-3 ovarian = test system: OVCAR-3 ovarian
MCF7 breast = test system: MCF7 breast
NCI-H23 lung = test system: NCI-H23 lung
KM12 colon = test system: KM12 colon
MALME-3M melanoma = test system: MALME-3M melanoma
UACC-257 melanoma = test system: UACC-257 melanoma

SMILES: CCOC1OC(CO[Si](C)(C)C(C)(C)C)C(O)CC1n1ccc(=O)[nH]c1=O (stereo not given)
- TGI (PC-3 prostate): > 100 µM
- TGI (A549 NSCLC): > 100 µM
- TGI (UACC-62 melanoma): > 100 µM
- TGI (MDA-N): > 100 µM
- TGI (MDA-MB-435): > 100 µM
- TGI (IGROV1 ovarian): 48.6 µM
- TGI (NCI-H522 lung): 45.6 µM
- TGI (SK-MEL-2 melanoma): > 100 µM
- TGI (SN12C renal): > 100 µM
- TGI (BT-549 breast): > 100 µM
- TGI (HOP-92 NSCLC): > 100 µM
- TGI (RXF 393 renal): > 100 µM
- TGI (MOLT-4 leukemia): 69.1 µM
- TGI (SW-620 colon): 52 µM
- TGI (DU-145 prostate): > 100 µM
- TGI (OVCAR-5 ovarian): > 100 µM
- TGI (M14 melanoma): > 100 µM
- TGI (K-562 leukemia): 73.1 µM
- TGI (T-47D breast): > 100 µM
- TGI (UO-31 renal): > 100 µM
- TGI (LOX IMVI melanoma): 31.6 µM
- TGI (NCI-H460 lung): > 100 µM
- TGI (U251 CNS): > 100 µM
- TGI (HS 578T breast): > 100 µM
- TGI (HT29 colon): > 100 µM
- TGI (SNB-75 CNS): > 100 µM
- TGI (HCC-2998 colon): > 100 µM
- TGI (SK-MEL-28 melanoma): > 100 µM
- TGI (A498 renal): > 100 µM
- TGI (OVCAR-4 ovarian): > 100 µM
- TGI (COLO 205 colon): > 100 µM
- TGI (EKVX NSCLC): > 100 µM
- TGI (SNB-19 CNS): > 100 µM
- TGI (786-0 renal): > 100 µM
- TGI (RPMI-8226 leukemia): > 100 µM
- TGI (ACHN renal): > 100 µM
- TGI (OVCAR-8 ovarian): > 100 µM
- TGI (TK-10 renal): > 100 µM
- TGI (CAKI-1 renal): > 100 µM
- TGI (SK-MEL-5 melanoma): > 100 µM
- TGI (SR leukemia): > 100 µM
- TGI (MDA-MB-231 breast): > 100 µM
- TGI (SF-295 CNS): > 100 µM
- TGI (NCI/ADR-RES ovarian): > 100 µM
- TGI (HCT-15 colon): > 100 µM
- TGI (HCT-116 colon): 30.7 µM
- TGI (SF-539 CNS): > 100 µM
- TGI (NCI-H226 lung): > 100 µM
- TGI (SF-268 CNS): > 100 µM
- TGI (OVCAR-3 ovarian): > 100 µM
- TGI (MCF7 breast): 88.7 µM
- TGI (NCI-H23 lung): > 100 µM
- TGI (KM12 colon): > 100 µM
- TGI (MALME-3M melanoma): > 100 µM
- TGI (UACC-257 melanoma): > 100 µM
